Data taken from PMC12459314, “Subcutaneous administration of a novel TRPM8 antagonist reverses cold hypersensitivity while attenuating the drop in core body temperature” (British journal of pharmacology, 2024).
pEC50: −log10 of the molar value. Values joined by “and” are separate entries in the source; they are usually repeats but may differ in a detail not shown here. Equal entries are not always repeated.

Key:
human TRPV1 = target: T1, human TRPV1 (Homo sapiens, UniProt Q8NER1); experiment: FlexStation Ca2+ flux assay in HEK293T cells transfected with human TRPV1; assay type: cell-based
T1 construct: expressed in transfected cells; host or cells: HEK293T
Method: The human embryonic kidney cell line (HEK293T, CRL-1573, RRID: CVCL_0045) was purchased from the American Type Culture Collection (Manassas, USA) and was maintained in Dulbecco’s Minimal Essential Medium (DMEM, Cellgro10013CV, Corning, Tewksbury, USA) that was supplemented with 10% fetal bovine serum (Gemini Bio-products), 2-mM L-glutamine (Invitrogen) and 100 U/mL penicillin and streptomycin (Invitrogen) and cultured in an incubator at 37°C, 5% CO2 and 95% humidity. Human TRPV1 and TRPA1 plasmid DNA (gift from D. Julius) were transiently bulk transfected individually into HEK293T cells using the FuGene HD transfection reagent (TFR, Promega, Madison, WI, USA) at a 3:1 ratio (TFR:DNA). […] The plate was transferred to a FlexStation 3 microplate reader. Relative fluorescence units (RFUs) (Ex. 485 nm, Em 525 nm) were then acquired at 37°C in the kinetic mode. The run time for the agonist (1st) and antagonist (2nd) reads were 60 s each, for a total run time of 120 s, with an interval of 3.1 s between reads in the same well to allow all 16 wells in a column to be read sequentially, and the photomultiplier tube (PMT) level was set at medium, with 6 flashes per read. Baseline Fluo-6 RFUs were acquired for 18 s prior to the addition of compound in both the agonist and antagonist reads. For the first addition agonist read, the volume in the well was 50 μl, the pipette height was set at 40 μl, and 12.5 μl of the test compound was delivered at a speed of 2 μl·s^−1 after the baseline RFU’s acquisition period at 19 s, and the RFUs were acquired for an additional 41 s. For the second addition antagonist read, the volume in the well was 62.5 μl, the pipette height was set at 40 μl, and 12.5 μl of an EC80 agonist concentration was delivered at a speed of 2 μl/s after the baseline RFU’s acquisition period at 19 s, and the RFUs were acquired for an additional 41 s. […]

human TRPA1 = target: T2, human TRPA1 (Homo sapiens, UniProt O75762); experiment: FlexStation Ca2+ flux assay in HEK293T cells transfected with human TRPA1; assay type: cell-based
T2 construct: expressed in transfected cells; host or cells: HEK293T
Method: The human embryonic kidney cell line (HEK293T, CRL-1573, RRID: CVCL_0045) was purchased from the American Type Culture Collection (Manassas, USA) and was maintained in Dulbecco’s Minimal Essential Medium (DMEM, Cellgro10013CV, Corning, Tewksbury, USA) that was supplemented with 10% fetal bovine serum (Gemini Bio-products), 2-mM L-glutamine (Invitrogen) and 100 U/mL penicillin and streptomycin (Invitrogen) and cultured in an incubator at 37°C, 5% CO2 and 95% humidity. Human TRPV1 and TRPA1 plasmid DNA (gift from D. Julius) were transiently bulk transfected individually into HEK293T cells using the FuGene HD transfection reagent (TFR, Promega, Madison, WI, USA) at a 3:1 ratio (TFR:DNA). Transfected cells were seeded at 10,000 cells per well in a volume of 25 μl into black walled collagen coated 384-well microtiter plates and cultured in an incubator at 37°C, 5% CO2 and 95% humidity for 48 h prior to the initiation of calcium mobilization experiments performed on a FlexStation 3 (Molecular Devices, Sunnyvale, CA, USA) platform equipped with a 16-channel robotic pipettor head and FLIPR tetra pipette tips. At 46 h post transfection, cell monolayers were preloaded with 25 μl of the FLIPR Calcium 6 dye (Molecular Devices) for 2 h in an incubator at 37°C, 5% CO2 and 95% humidity according to the manufacturer’s instructions. The plate was transferred to a FlexStation 3 microplate reader. Relative fluorescence units (RFUs) (Ex. 485 nm, Em 525 nm) were then acquired at 37°C in the kinetic mode. The run time for the agonist (1st) and antagonist (2nd) reads were 60 s each, for a total run time of 120 s, with an interval of 3.1 s between reads in the same well to allow all 16 wells in a column to be read sequentially, and the photomultiplier tube (PMT) level was set at medium, with 6 flashes per read. Baseline Fluo-6 RFUs were acquired for 18 s prior to the addition of compound in both the agonist and antagonist reads. For the first addition agonist read, the volume in the well was 50 μl, the pipette height was set at 40 μl, and 12.5 μl of the test compound was delivered at a speed of 2 μl·s^−1 after the baseline RFU’s acquisition period at 19 s, and the RFUs were acquired for an additional 41 s. For the second addition antagonist read, the volume in the well was 62.5 μl, the pipette height was set at 40 μl, and 12.5 μl of an EC80 agonist concentration was delivered at a speed of 2 μl/s after the baseline RFU’s acquisition period at 19 s, and the RFUs were acquired for an additional 41 s. The FlexStation 3 instrument settings, automated pipetting and data collection were all controlled by the SoftMax Pro software, version 7.1.2.
To analyse the agonist and antagonist Ca^2+ mobilization Fluo-6 RFU’s kinetic data, the RFU’s readings acquired throughout the 60-s acquisition period for each individual well were divided by the average RFU values acquired during the first 18-s baseline acquisition period from the same well to calculate a fold over baseline (FOB) ratio.

[1] = target: T3, δ opioid receptor (OPRD1) (Homo sapiens, UniProt P41143); experiment: Eurofins DiscoverX opioid receptor assays (SAFETYscan; HitHunter cAMP), OPRD1; assay type: cell-based
T3 construct: purchased Eurofins DiscoverX (SAFETYscan; gpcrSCAN; HitHunter cAMP XS+)
Method: Assessment of the safety profile of VBJ103 across 78 assays using recombinant human targets was performed with the SAFETYscan E/IC50 ELECT service by Eurofins DiscoverX (San Diego, CA, USA). […] The assays were performed utilizing PathHunter enzyme fragment complementation (EFC) technology, FLIPR®-based cellular screening assays, KINOMEscan kinase binding assays and a variety of enzymatic assays. Further potential functional activity at opioid receptors was performed in the gpcrSCAN service by Eurofins DiscoverX. Hit Hunter® cAMP assays were carried out using Enzyme Fragment Complementation (EFC) with β-galactosidase (β-Gal) as the functional reporter.
Assessment of potential positive allosteric modulator (PAM) activity at μ, δ and κ opioid receptors was performed with the DiscoverX HitHunter cAMP XS+ assay by Eurofins DiscoverX (San Diego, CA, USA).

[2] = Core body temperature by radiotelemetry after i.c.v. administration; assay type: in vivo, mouse; settings: 306 nmol per 1 μL i.c.v.
Method: A second set of male C57Bl6J mice (Jackson Laboratories, n = 8) was implanted with telemetry as described above and a 26-gauge brain cannula (Plastics One) targeted at the lateral ventricle using coordinates relative to Bregma: 0.3 mm caudal, 1.0 mm lateral, 3.0 mm ventral. This second procedure was also performed under isoflurane anesthesia. The brain cannula was secured to the skull with two screws and dental cement. Animals were treated with buprenex (0.05 mg·kg^−1, s.c. every 8 h for 48 h) and enrofloxacin (2 mg·kg^−1, s.c.), singly housed and handled daily as described above. A single i.c.v. injection was performed every other day in a randomized order and included: (1) Galanin-like peptide (3 nmol/1 μL), (2) VBJ103 (306 nmol/1 μL) and (3) VBJ103 vehicle (1 μL). Galanin-like peptide produced a decrease in body temperature in five of eight mice. Therefore, body temperature data in response to VBJ103 and vehicle are presented in these five mice. These studies were carried out with a single dose of VBJ103 (306 nmol/1 μL or ~4 mg·kg^−1), which was the highest dose achievable due to constraints of the injection volume and the solubility of VBJ103.

[3] = test system: 78 recombinant human targets; experiment: SAFETYscan E/IC50 ELECT panel of 78 assays; settings: 10 concentrations, 0.005 to 100 μM; single experiment
Method: Assessment of the safety profile of VBJ103 across 78 assays using recombinant human targets was performed with the SAFETYscan E/IC50 ELECT service by Eurofins DiscoverX (San Diego, CA, USA). Data represent a single experiment and therefore should be considered preliminary. The assays were performed utilizing PathHunter enzyme fragment complementation (EFC) technology, FLIPR®-based cellular screening assays, KINOMEscan kinase binding assays and a variety of enzymatic assays. Further potential functional activity at opioid receptors was performed in the gpcrSCAN service by Eurofins DiscoverX. Hit Hunter® cAMP assays were carried out using Enzyme Fragment Complementation (EFC) with β-galactosidase (β-Gal) as the functional reporter.

[4] = design: method as in Journigan et al., 2020; settings: intraplantar administration; ref Journigan et al., 2020; cited from earlier work

T3 sequence (P41143 whole entry): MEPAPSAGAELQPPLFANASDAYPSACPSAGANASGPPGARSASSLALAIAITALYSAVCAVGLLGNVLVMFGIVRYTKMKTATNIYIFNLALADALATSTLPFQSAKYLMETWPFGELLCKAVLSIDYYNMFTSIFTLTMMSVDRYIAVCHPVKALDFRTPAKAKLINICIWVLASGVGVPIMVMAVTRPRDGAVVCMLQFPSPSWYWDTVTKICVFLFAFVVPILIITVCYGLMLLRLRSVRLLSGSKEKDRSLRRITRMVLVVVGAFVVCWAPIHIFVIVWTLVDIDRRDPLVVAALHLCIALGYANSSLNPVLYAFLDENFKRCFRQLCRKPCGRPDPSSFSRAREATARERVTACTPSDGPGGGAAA
T2 sequence (O75762 whole entry): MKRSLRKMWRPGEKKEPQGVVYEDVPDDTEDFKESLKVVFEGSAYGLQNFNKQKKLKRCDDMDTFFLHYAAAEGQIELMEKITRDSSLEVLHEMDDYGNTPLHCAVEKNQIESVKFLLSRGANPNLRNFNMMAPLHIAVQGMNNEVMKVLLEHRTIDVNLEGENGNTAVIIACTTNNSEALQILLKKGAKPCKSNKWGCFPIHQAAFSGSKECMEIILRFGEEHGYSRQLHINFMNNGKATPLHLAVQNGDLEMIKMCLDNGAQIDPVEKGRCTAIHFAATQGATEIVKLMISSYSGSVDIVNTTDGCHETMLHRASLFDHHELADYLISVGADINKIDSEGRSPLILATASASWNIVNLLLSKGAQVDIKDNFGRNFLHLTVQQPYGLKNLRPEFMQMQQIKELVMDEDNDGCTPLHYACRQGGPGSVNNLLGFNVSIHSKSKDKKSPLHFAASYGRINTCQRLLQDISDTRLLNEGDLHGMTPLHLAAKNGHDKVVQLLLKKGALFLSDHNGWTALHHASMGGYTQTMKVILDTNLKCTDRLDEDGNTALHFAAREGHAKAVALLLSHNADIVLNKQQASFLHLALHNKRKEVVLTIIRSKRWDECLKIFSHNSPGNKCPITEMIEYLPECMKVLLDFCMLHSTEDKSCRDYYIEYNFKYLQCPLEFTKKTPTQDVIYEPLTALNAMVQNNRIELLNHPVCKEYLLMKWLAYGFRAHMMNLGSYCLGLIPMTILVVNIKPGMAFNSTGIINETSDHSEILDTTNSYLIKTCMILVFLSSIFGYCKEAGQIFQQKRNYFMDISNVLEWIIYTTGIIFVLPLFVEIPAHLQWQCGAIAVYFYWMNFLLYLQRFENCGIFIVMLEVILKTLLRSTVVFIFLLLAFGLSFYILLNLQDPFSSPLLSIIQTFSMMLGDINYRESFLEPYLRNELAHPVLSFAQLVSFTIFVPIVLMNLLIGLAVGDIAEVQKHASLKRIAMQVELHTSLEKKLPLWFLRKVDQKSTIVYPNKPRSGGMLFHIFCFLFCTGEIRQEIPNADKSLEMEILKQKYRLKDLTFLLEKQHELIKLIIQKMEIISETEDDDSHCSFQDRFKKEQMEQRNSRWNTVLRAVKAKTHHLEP
T1 sequence (Q8NER1 whole entry): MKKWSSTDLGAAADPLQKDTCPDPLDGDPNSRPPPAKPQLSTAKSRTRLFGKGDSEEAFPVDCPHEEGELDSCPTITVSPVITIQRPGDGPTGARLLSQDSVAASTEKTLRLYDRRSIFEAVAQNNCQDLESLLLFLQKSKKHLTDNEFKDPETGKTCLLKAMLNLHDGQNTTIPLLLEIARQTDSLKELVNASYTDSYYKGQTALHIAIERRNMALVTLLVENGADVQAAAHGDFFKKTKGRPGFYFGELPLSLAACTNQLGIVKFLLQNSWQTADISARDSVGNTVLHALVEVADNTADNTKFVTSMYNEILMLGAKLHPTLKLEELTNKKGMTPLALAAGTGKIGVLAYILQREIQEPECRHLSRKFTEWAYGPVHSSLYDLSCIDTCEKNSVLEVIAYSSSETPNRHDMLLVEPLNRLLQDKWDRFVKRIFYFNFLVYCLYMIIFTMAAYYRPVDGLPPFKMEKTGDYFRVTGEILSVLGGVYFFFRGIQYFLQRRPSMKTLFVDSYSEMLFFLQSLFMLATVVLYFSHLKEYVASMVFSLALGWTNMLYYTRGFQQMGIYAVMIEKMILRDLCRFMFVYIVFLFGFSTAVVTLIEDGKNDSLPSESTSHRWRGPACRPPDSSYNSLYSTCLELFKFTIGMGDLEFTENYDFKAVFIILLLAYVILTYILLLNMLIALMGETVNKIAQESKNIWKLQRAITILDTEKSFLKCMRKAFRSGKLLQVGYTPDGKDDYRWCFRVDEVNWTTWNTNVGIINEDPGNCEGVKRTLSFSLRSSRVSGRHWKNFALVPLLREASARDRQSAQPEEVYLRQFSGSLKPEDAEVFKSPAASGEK

- agonist activity at TRPV1 (human TRPV1; compound alone): no apparent agonist activity
- inhibition of the Ca2+ signal at TRPV1 (human TRPV1; evoked with an EC80 concentration (0.1 μM) of capsaicin): Nor was there a detectable inhibition
- pEC50 (human TRPA1; Figure 1g experiment, without HC-030031): 6.02
- antagonist activity at TRPA1 (human TRPA1; against an EC80 concentration (10 μM) of AITC): no detectable antagonist activity
- pEC50 (human TRPA1; agonist read): 5.98 and < 6.00
- shift in TRPA1 EC50 (human TRPA1; with versus without HC-030031 (10 μM)): 3.2 fold
SMILES: O=C(NC1CCC2(CCCC2)CC1)c1ccc(-c2ccccc2)cc1 [VBJ103, N-(Spiro[4.5]decan-8-yl)-[1,1′-biphenyl]-4-carboxamide]
- Emax ([1]; Positive Allosteric Modulator format, read-out: Max Response, cAMP): 0%
- pEC50 ([1]; read-out: RC50 (EC50), cAMP): < 4.00
- activity at δ opioid receptor ([1]; safety panel): no activity
- change in CBT compared to vehicle [2]: did not significantly (P > 0.05) alter
- effects across the safety panel [3]: only dose-dependent effect detected
- oxaliplatin-induced hypersensitivity to non-noxious cooling (acetone drop) [4]: dose-dependently suppresses
